Test results taken from PubChem BioAssay AID248 (DTP/NCI, 2004).
“And” between values parts separate entries of the source, which are not always exact repeats. Equal entries are not always repeated. Toxic doses and inconclusive results are not listed. Rule as the data show it: active = T/C of 150% or more; inactive = T/C below 125%.

System: L1210 leukemia ip in BDF1 mice, survival T/C
Experiment: NCI In Vivo Anticancer Drug Screen. Data for tumor model L1210 Leukemia (intraperitoneal) in B6D2F1 (BDF1) mice
Conditions: endpoint: mean survival time, higher = longer survival
Procedure, shortened: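 In this screen, tumor-bearing mice given compound are compared to those given vehicle, and their survival values are reported as a treated-to-control quotient.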

[1] = dose: 100.0 mg/kg/injection, schedule: Q01DX009 (ip), vehicle: Klucel (hydroxypropylcellulose) (HPC)
[2] = dose: 200.0 mg/kg/injection, schedule: Q01DX009 (ip), vehicle: Klucel (hydroxypropylcellulose) (HPC)
[3] = dose: 100.0 mg/kg/injection, schedule: Q01DX009 (ip), vehicle: saline with Tween-80
[4] = dose: 100.0 mg/kg/injection, schedule: Q04DX003 (ip), vehicle: saline with Tween-80
[5] = dose: 200.0 mg/kg/injection, schedule: Q01DX009 (ip), vehicle: saline with Tween-80
[6] = dose: 200.0 mg/kg/injection, schedule: Q04DX003 (ip), vehicle: saline with Tween-80
[7] = dose: 400.0 mg/kg/injection, schedule: Q01DX009 (ip), vehicle: saline with Tween-80
[8] = dose: 400.0 mg/kg/injection, schedule: Q04DX003 (ip), vehicle: saline with Tween-80
[9] = dose: 400.0 mg/kg/injection, schedule: Q01DX009 (ip), vehicle: Klucel (hydroxypropylcellulose) (HPC)
[10] = dose: 100.0 mg/kg/injection, schedule: Q01DX001 (ip), vehicle: other
[11] = dose: 200.0 mg/kg/injection, schedule: Q01DX001 (ip), vehicle: other
[12] = dose: 400.0 mg/kg/injection, schedule: Q01DX001 (ip), vehicle: other
[13] = dose: 100.0 mg/kg/injection, schedule: Q01DX009 (ip), vehicle: saline
[14] = dose: 200.0 mg/kg/injection, schedule: Q01DX009 (ip), vehicle: saline
[15] = dose: 400.0 mg/kg/injection, schedule: Q01DX009 (ip), vehicle: saline
[16] = dose: 100.0 mg/kg/injection, schedule: Q04DX003 (ip), vehicle: Klucel (hydroxypropylcellulose) (HPC)
[17] = dose: 200.0 mg/kg/injection, schedule: Q04DX003 (ip), vehicle: Klucel (hydroxypropylcellulose) (HPC)
[18] = dose: 400.0 mg/kg/injection, schedule: Q04DX003 (ip), vehicle: Klucel (hydroxypropylcellulose) (HPC)
[19] = dose: 100.0 mg/kg/injection, schedule: Q04DX002 (ip), vehicle: saline
[20] = dose: 200.0 mg/kg/injection, schedule: Q04DX002 (ip), vehicle: saline
[21] = dose: 400.0 mg/kg/injection, schedule: Q04DX002 (ip), vehicle: saline
[22] = dose: 100.0 mg/kg/injection, schedule: Q01DX001 (ip), vehicle: saline
[23] = dose: 200.0 mg/kg/injection, schedule: Q01DX001 (ip), vehicle: saline
[24] = dose: 400.0 mg/kg/injection, schedule: Q01DX001 (ip), vehicle: saline

Measured: T/C

Cc1c(Cl)cccc1NC(=O)Oc1ccc(F)cc1Cl
inactive: [1] 94 % of control | [2] 95 % of control

Cc1ccc(C)c(-n2nnc3ccccc3c2=O)c1
inactive: [3] 89 % of control | [4] 95 % of control | [5] 92 % of control | [6] 101 % of control | [7] 91 % of control | [8] 96 % of control

COCc1c(C)c(C)cc(C)c1C
inactive: [1] 96 % of control | [2] 96 % of control | [9] 91 % of control

CC1=CC(=O)C(C)(C)CC1
inactive: dose: 50.0 mg/kg/injection, schedule: Q01DX009 (ip), vehicle: saline with Tween-80 96 % of control | [3] 92 % of control | [5] 100 % of control

OC1(Cc2ccccc2)CCCCC1
inactive: [10] 102 % of control | [4] 102 % of control | [11] 110 % of control | [6] 104 % of control | [12] 118 % of control | [8] 102 % of control

c1ccc(C2CC([P+](c3ccccc3)(c3ccccc3)c3ccccc3)=NN2)cc1 (centres undefined)
inactive: dose: 3.12 mg/kg/injection, schedule: Q01DX009 (ip), vehicle: Klucel (hydroxypropylcellulose) (HPC) 103 % of control | dose: 6.25 mg/kg/injection, schedule: Q01DX009 (ip), vehicle: Klucel (hydroxypropylcellulose) (HPC) 120 % of control | dose: 6.25 mg/kg/injection, schedule: Q04DX003 (ip), vehicle: Klucel (hydroxypropylcellulose) (HPC) 110 % of control | dose: 12.5 mg/kg/injection, schedule: Q01DX002 (ip), vehicle: Klucel (hydroxypropylcellulose) (HPC) 114 % of control | dose: 12.5 mg/kg/injection, schedule: Q01DX009 (ip), vehicle: Klucel (hydroxypropylcellulose) (HPC) 92 % of control | dose: 12.5 mg/kg/injection, schedule: Q04DX003 (ip), vehicle: Klucel (hydroxypropylcellulose) (HPC) 108 % of control | dose: 25.0 mg/kg/injection, schedule: Q01DX001 (ip), vehicle: Klucel (hydroxypropylcellulose) (HPC) 104 % of control | dose: 25.0 mg/kg/injection, schedule: Q01DX002 (ip), vehicle: Klucel (hydroxypropylcellulose) (HPC) 104 % of control | dose: 25.0 mg/kg/injection, schedule: Q04DX003 (ip), vehicle: Klucel (hydroxypropylcellulose) (HPC) 108 % of control | dose: 50.0 mg/kg/injection, schedule: Q01DX001 (ip), vehicle: Klucel (hydroxypropylcellulose) (HPC) 97 % of control | dose: 50.0 mg/kg/injection, schedule: Q01DX002 (ip), vehicle: Klucel (hydroxypropylcellulose) (HPC) 97 % of control | dose: 50.0 mg/kg/injection, schedule: Q04DX003 (ip), vehicle: Klucel (hydroxypropylcellulose) (HPC) 97 % of control

CC(=O)OCC1OC(OC(C)=O)C(NC(=O)NCCCl)C(OC(C)=O)C1OC(C)=O (centres undefined)
inactive: [10] 97 % of control | [11] 101 % of control | [12] 97 % of control

COC(=O)c1c(C)ccc2c(O)c3c(cc12)C(=O)c1c2c(cc(O)c1C3=O)C1(C)OC(C)(O2)C(O)C(N(C)C)C1O (centres undefined)
inactive: dose: 25.0 mg/kg/injection, schedule: Q01DX009 (ip), vehicle: saline 96 % of control | dose: 50.0 mg/kg/injection, schedule: Q01DX009 (ip), vehicle: saline 96 % of control | [13] 104 % of control | [14] 98 % of control | [15] 102 % of control

CS(=O)(=O)OCCN(Cc1ccc(OS(C)(=O)=O)cc1)S(C)(=O)=O
inactive: [3] 91 % of control | [4] 109 % of control | [5] 93 % of control | [6] 95 % of control | [8] 109 % of control

CCCCCCCCc1ccc(C(=O)O)cc1
inactive: [16] 105 % of control | [17] 101 % of control | [18] 91 % of control

CC1(C)C2CCC1(C)C(OC(=O)c1ccc([N+](=O)[O-])cc1)C2OC(=O)c1ccc([N+](=O)[O-])cc1 (centres undefined)
inactive: dose: 75.0 mg/kg/injection, schedule: Q01DX009 (ip), vehicle: saline 108 % of control | dose: 150.0 mg/kg/injection, schedule: Q01DX009 (ip), vehicle: saline 103 % of control | dose: 300.0 mg/kg/injection, schedule: Q01DX009 (ip), vehicle: saline 97 % of control

CC(N)(CO)CO
inactive: [13] 114 % of control | [19] 90 % of control | [14] 122 % of control | [20] 103 % of control | [15] 100 % of control | [21] 103 % of control

COC1C(CO)OC(n2cnc3c(N)ncnc32)C1O (centres undefined)
inactive: dose: 50.0 mg/kg/injection, schedule: Q01DX001 (ip), vehicle: carboxymethylcellulose (CMC) 102 % of control | dose: 100.0 mg/kg/injection, schedule: Q01DX001 (ip), vehicle: carboxymethylcellulose (CMC) 110 % of control | dose: 200.0 mg/kg/injection, schedule: Q01DX001 (ip), vehicle: carboxymethylcellulose (CMC) 116 % of control | dose: 400.0 mg/kg/injection, schedule: Q01DX001 (ip), vehicle: carboxymethylcellulose (CMC) 98 % of control

O=C(Nc1cc(NC(=O)Nc2cccc(C3=NCCN3)c2)cc(C(=O)O)c1)Nc1cccc(C2=NCCN2)c1
inactive: dose: 15.0 mg/kg/injection, schedule: Q01DX Z (ip), vehicle: carboxymethylcellulose (CMC) 96 % of control | dose: 30.0 mg/kg/injection, schedule: Q01DX Z (ip), vehicle: carboxymethylcellulose (CMC) 96 % of control | dose: 60.0 mg/kg/injection, schedule: Q01DX Z (ip), vehicle: carboxymethylcellulose (CMC) 94 % of control | dose: 120.0 mg/kg/injection, schedule: Q01DX Z (ip), vehicle: carboxymethylcellulose (CMC) 100 % of control and 106 % of control | dose: 240.0 mg/kg/injection, schedule: Q01DX Z (ip), vehicle: carboxymethylcellulose (CMC) 104 % of control

Cc1cc(OC(=O)Nc2ccccc2Cl)ccc1[N+](=O)[O-]
inactive: [1] 107 % of control | [16] 100 % of control | [2] 104 % of control | [17] 89 % of control | [9] 98 % of control | [18] 102 % of control

Cc1ccc(O)c(CCCC(=O)O)c1
inactive: dose: 100.0 mg/kg/injection, schedule: Q01DX009 (ip), vehicle: alcohol 100 % of control | dose: 200.0 mg/kg/injection, schedule: Q01DX009 (ip), vehicle: alcohol 101 % of control | dose: 400.0 mg/kg/injection, schedule: Q01DX009 (ip), vehicle: alcohol 98 % of control

CCc1nc(=S)c2[nH]cnc2[nH]1
inactive: [4] 93 % of control | [6] 90 % of control | [8] 93 % of control

CCCC(C)OS(=O)(=O)c1ccc(N)cc1 (centres undefined)
inactive: [1] 113 % of control | [2] 95 % of control

CC(C)(C(=O)[O-])C(=O)O.[Co+3].[NH2-].[NH2-].[NH2-].[NH2-].[NH2-].[O-][Cl+3]([O-])([O-])O
inactive: [19] 92 % of control | [20] 95 % of control | [21] 106 % of control

C=C(C)C1CC(=O)C2(C)OC2C1 (centres undefined)
inactive: dose: 75.0 mg/kg/injection, schedule: Q01DX001 (ip), vehicle: other 102 % of control | dose: 150.0 mg/kg/injection, schedule: Q01DX001 (ip), vehicle: other 98 % of control | dose: 300.0 mg/kg/injection, schedule: Q01DX001 (ip), vehicle: other 94 % of control

CC(C)CCC[C@@H](C)[C@H]1CC[C@H]2[C@@H]3CC=C4C[C@@H](O)CC[C@]4(C)[C@H]3CC[C@]12C
inactive: [22] 92 % of control | [1] 94 % of control | [16] 97 % of control | [23] 95 % of control | [2] 91 % of control | [17] 89 % of control | [24] 92 % of control | [9] 92 % of control | [18] 94 % of control

O=C(CCN1C(=O)CCC1=O)NCCc1ccccc1
inactive: [3] 97 % of control | [5] 98 % of control | [7] 101 % of control

NC(=O)/C(=C\c1ccc(N=Nc2ccc(/C=C(\C(N)=O)c3cccc4ccccc34)cc2)cc1)c1cccc2ccccc12
inactive: [16] 93 % of control | [17] 99 % of control | [18] 89 % of control

COc1ccc(-c2[nH]c3ccccc3c2-c2ccc(OC)cc2)cc1
inactive: [22] 89 % of control | [23] 89 % of control | [24] 95 % of control
